Common to all, as to assay type: cell-based, human
The test system of experiment [1] is NCI-N87 cells. The experiment is described as follows: Muse Ki67 cell proliferation assay. As to conditions: NCI-N87, single treatment (10 µM compound; 2 nM PTX); control 78.2%. An excerpt:
(§1) After the specified drug treatments, the cells were processed with the Muse Ki67 cell proliferation kit, which identified actively proliferating cells based on the expression of Ki67, a nuclear protein present in the active phases of the cell cycle (G1, S, G2, and M phases) and absent in the resting G0 phase. The Muse Ki67 Proliferation Assay was used with the Guava Muse Cell Analyzer according to the manufacturer’s instructions (Luminex Corporation, Austin, USA). Briefly, the cells were stained after fixation and permeabilization procedures, using Hu Ki67 or Hu IgG1 control fluorochrome-conjugated antibodies to distinguish Ki67(+) or Ki67(-) cells, respectively. The software provided the percentage of both Ki67(+) and Ki67(-) cells.

The test system of experiment [2] is HGC27-S cells. The experiment is described as follows: Muse Ki67 cell proliferation assay. As to conditions: HGC27-S, 48 h.
Excerpt: as §1

Experiment [3] concerns HGC27-R cells. The experiment is described as follows: Muse Ki67 cell proliferation assay.
Excerpt: as §1

The test system of experiment [4] is NCI-N87 cells. The experiment is described as follows: Muse caspase 3/7 activation assay. An excerpt:
(§2) After the specified drug treatments, the cells were processed using the Muse Annexin V/Dead Cell Assay Kit (Luminex Corporation, Austin, USA) for quantitative analysis of live, early/ late apoptotic, and dead cells on a Muse Cell Analyzer. Briefly, the assay utilized Annexin V to detect phosphatidylserine on the external membrane of apoptotic cells. The fluorescent signal emitted by dye-conjugated antibodies was detected by flow cytometry technology (Muse Cell Analyzer, Luminex Corporation, Austin, USA). 7-Amino-Actinomycin D (7-AAD) dead cell marker was also used. The cells were then analyzed according to the user’s guide. […] After 48 h treatments the cells were processed according to the user’s guide and analyzed with the Muse caspase-3/7 kit (Millipore).The assay provides the relative percentage of living, early/late apoptotic or dead cells.

Experiment [5] deals with HGC27-S cells. The experiment is described as follows: Muse caspase 3/7 activation assay. As to conditions: 48 h.
Excerpt: as §2

The test system of experiment [6] is HGC27-R cells. The experiment is described as follows: Muse caspase 3/7 activation assay. As to conditions: 48 h.
Excerpt: as §2

The mark [7] stands for this setting: representative flow cytometry chart, 10 µM CC48, PTX, single or combined as labelled.
The mark [8] stands for this setting: representative flow cytometry chart, 48 h, 10 µM CC48, PTX, single or combined as labelled.
The mark [9] stands for this setting: single treatment, untreated 6.6%.

SMILES strings stand for the structures.

Consider `CC(=O)O[C@H]1C(=O)[C@@]2(C)[C@H]([C@H](OC(=O)c3ccccc3)[C@]3(O)C[C@H](OC(=O)[C@H](O)[C@@H](NC(=O)c4ccccc4)c4ccccc4)C(C)=C1C3(C)C)[C@]1(OC(C)=O)CO[C@@H]1C[C@@H]2O` [PTX, Paclitaxel], for which the “percentage of Ki67+ cells” value in experiment [1] is on record as 68.1%; in experiment [2] (single treatment (10 µM CC48; 4 nM PTX), control 80.50%) it was 58.1%; in experiment [3] (single treatment, control 82.95%), 80.5%. The “Ki67(+) cells” value is on record as 58.10% in experiment [2] (setting [7]) and 80.50% in experiment [3] (setting [8]). Besides, the results for the “Ki67(-) cells” value in experiment [2] (setting [7]) and in experiment [3] (setting [8]) were 41.90% and 19.50%, respectively. Besides, in experiment [4] (NCI-N87, single treatment (2 nM PTX, 6 µM AM630, 10 µM others), untreated 6.35%), the “cells with activated caspase 3/7” value is 14.6%. In addition, the dead cells is given as 8.1% in experiment [4] (NCI-N87, single treatment, control 5.8% / 5.6%); 23.7% in experiment [5] (setting [9]); 7.70% in experiment [6] (setting [9]). The “apoptotic cells (caspase 3/7 activation)” value in experiment [5] (single treatment (4 nM PTX, 6 µM AM630, 10 µM others), untreated 13.05%) is given as 26.2%; in experiment [6] (single treatment (4 nM PTX, 6 µM AM630, 10 µM others), untreated 18.9%), 21.4%.

(Values after article PMC12265377, “CC48 a new CB2R agonist/FAAH inhibitor dual drug blocks gastric cancer progression and overcomes paclitaxel resistance” (Journal of Experimental & Clinical Cancer Research : CR, 2025).)
